Test results: PubChem BioAssay (NCI)
“And” between values parts separate entries of the source, which are not always exact repeats. Identical values can stand only once.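 Assay format: 96-well plates, 48-hour exposure. Here, GI50 denotes the concentration required for 50% inhibition of growth. The concentration for full growth arrest is given as TGI.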

Legend:
Assay in all cases: NCI anticancer screen, dose series, 48 h
A549 NSCLC = tested on: A549 NSCLC
U251 CNS = tested on: U251 CNS
KM12 colon = tested on: KM12 colon
EKVX NSCLC = tested on: EKVX NSCLC
SK-MEL-5 melanoma = tested on: SK-MEL-5 melanoma
786-0 renal = tested on: 786-0 renal
SNB-75 CNS = tested on: SNB-75 CNS
UACC-257 melanoma = tested on: UACC-257 melanoma
UACC-62 melanoma = tested on: UACC-62 melanoma
HOP-92 NSCLC = tested on: HOP-92 NSCLC

SMILES | TGI (A549 NSCLC) | TGI (U251 CNS) | TGI (KM12 colon) | TGI (EKVX NSCLC) | TGI (SK-MEL-5 melanoma) | TGI (786-0 renal) | TGI (SNB-75 CNS) | TGI (UACC-257 melanoma) | TGI (UACC-62 melanoma) | TGI (HOP-92 NSCLC) | GI50 (A549 NSCLC) | GI50 (U251 CNS) | GI50 (KM12 colon) | GI50 (EKVX NSCLC) | GI50 (SK-MEL-5 melanoma) | GI50 (786-0 renal) | GI50 (SNB-75 CNS) | GI50 (UACC-257 melanoma) | GI50 (UACC-62 melanoma) | GI50 (HOP-92 NSCLC)
CC#CC(O)(C(=O)OC1CCCN(C)C1)C1=CC=CCC1 (stereo not given) | > 100 µM | > 100 µM | > 100 µM | > 100 µM | > 100 µM | > 100 µM | > 100 µM | > 100 µM | > 100 µM | > 100 µM | – | – | – | – | – | – | – | – | – | –
O=[N+]([O-])c1ccc2[nH]cc(-c3c4ccsc4cc4[nH]c5ccc([N+](=O)[O-])cc5c34)c2c1 | 5.4 µM | 16.6 µM | 4.21 µM | 11.4 µM | 2.01 µM | 3.52 µM | 3.03 µM | 10.5 µM | 8.01 µM | 6.94 µM | 1.12 µM | 1.1 µM | 0.77 µM | 1.56 µM | 0.394 µM | 0.877 µM | 0.618 µM | 2.92 µM | 0.641 µM | 0.882 µM
CCN(CC)CCNc1c(OC)cc(C)c2sc3ccccc3c(=O)c12 | 18 µM | 16 µM | 17.2 µM | 32.5 µM | 3.4 µM | 28.4 µM | 28.7 µM | 3.6 µM | 3.36 µM | 32.2 µM | – | – | – | – | – | – | – | – | – | –
CN1CCN(Cc2ccc(NC(=O)c3cncc(C#Cc4cnc(N)c5ccc(F)cc45)c3)cc2C(F)(F)F)CC1 | 6.46 µM | 6.56 µM | 4.63 µM | 7.89 µM | 6.68 µM | 9.99 µM | 5.71 µM | 8.63 µM | 8.48 µM | 5.58 µM | 2.04 µM | 2.14 µM | 0.0282 µM | 3.84 µM | 2.26 µM | 3.95 µM | 1.3 µM | 4.08 µM | 4 µM | 0.989 µM
CCN(CC)CCC1CC/C(=C\c2ccc(OC)cc2)C1=O (stereo not given) | > 100 µM | > 100 µM | > 100 µM | > 100 µM | 44 µM | > 100 µM | > 100 µM | 77.6 µM | 34.7 µM | > 100 µM | – | – | – | – | – | – | – | – | – | –
CC(=O)CC1CCC(=O)CCC(=O)OC(CC(C)=O)CCC(=O)CCC(=O)O1 (stereo not given) | > 100 µM | > 100 µM | > 100 µM | > 100 µM | > 100 µM | > 100 µM | > 100 µM | > 100 µM | > 100 µM | > 100 µM | – | – | – | – | – | – | – | – | – | –
C[CH2][Sn]1([CH2]C)[O]C(=O)[O][Sn]([CH2]C)([CH2]C)[O]1 | > 100 µM | 29.8 µM | > 100 µM | > 57 µM | 40.8 µM | 32 µM | > 86.7 µM | 33 µM | 32.5 µM | 33.1 µM | > 65.4 µM | 14.8 µM | > 61.5 µM | > 41.8 µM | 21.1 µM | 17.6 µM | > 63.8 µM | 17.8 µM | 16.8 µM | 17.7 µM
O=c1ccn(C2OC(CO)C(O)C2O)c(=O)[nH]1 (stereo not given) | > 1000 µM | > 1000 µM | > 1000 µM | > 1000 µM | > 1000 µM | > 1000 µM | > 1000 µM | > 1000 µM | > 1000 µM | > 1000 µM | > 1000 µM | > 1000 µM | > 1000 µM | > 1000 µM | > 1000 µM | > 1000 µM | 789 µM and > 10 µM | – | > 1000 µM | > 1000 µM
Cc1cc2nc3c(=O)n(C)c(=O)nc-3n(-c3ccc(Cl)cc3)c2cc1C | 16.4 µM | 29.9 µM | > 100 µM | 43.9 µM | 4.14 µM | 43.3 µM | 24.4 µM | 20 µM | 10.6 µM | 34 µM | – | – | – | – | – | – | – | – | – | –
NC(N)=N/N=C(/c1nc2ccc([N+](=O)[O-])cc2[nH]c1=O)C(O)c1ccco1 (stereo not given) | > 100 µM | > 100 µM | > 100 µM | > 100 µM | > 100 µM | > 100 µM | > 100 µM | > 100 µM | > 100 µM | > 100 µM | – | – | – | – | – | – | – | – | – | –
Oc1ccc(N=Nc2ccc(Cl)cc2)cc1 | 31.3 µM | 29.7 µM | 28.2 µM | 31.8 µM | 24.1 µM | 31.5 µM | 46.1 µM | 31.5 µM | 36.4 µM | 29.2 µM | – | – | – | – | – | – | – | – | – | –
O=C(Oc1ccc(O)c2c(=O)n3c(cc12)[nH]c1ccccc13)c1ccccc1 | 66.8 µM | 27.4 µM | > 100 µM | > 100 µM | 36.9 µM | 32.5 µM | > 100 µM | 42.2 µM | 27.5 µM | 53.4 µM | 24 µM | 10.1 µM | 34.7 µM | 24.3 µM | 15.5 µM | 14.4 µM | 28.3 µM | 16.6 µM | 13.7 µM | 23.8 µM
COc1cc(C2c3cc4c(cc3[C@@H](Nc3ccc(C(=O)O)cc3)C3COC(=O)[C@H]23)OCO4)cc(OC)c1O (stereo not given in full) | > 100 µM | 53 µM and > 17.5 µM | 68.5 µM and > 17.5 µM | > 100 µM | 38.3 µM and > 17.5 µM | 35 µM and > 17.5 µM | 27.6 µM and > 17.5 µM | > 100 µM | 28.2 µM and > 17.5 µM | 18.5 µM and > 17.5 µM | – | 12.6 µM and 6.13 µM | – | – | – | 12.3 µM and 3.07 µM | – | – | – | –
O=C(O)C1CCc2ccc3ccccc3c2C1c1cccc2ccccc12 (stereo not given) | 36.4 µM | 33.8 µM | 37.8 µM | 85.8 µM | 30.1 µM | 38.2 µM | 90.1 µM | 59.4 µM | 29.4 µM | 38.6 µM | – | – | – | – | – | – | – | – | – | –
COc1cc2c(cc1OCc1ccccc1)N=C[C@@H]1C/C(=C/C(=O)NCCCN3C(=O)c4cccc5cccc(c45)C3=O)CN1C2=O | > 100 µM | > 100 µM | 6.59 µM | 6.17 µM | 3.33 µM | 11 µM | 3.66 µM | – | 2.55 µM | 4.76 µM | 3.05 µM | 0.444 µM | 1.09 µM | 1.75 µM | 1.04 µM | 0.423 µM | 0.877 µM | 2.26 µM | 0.599 µM | 0.724 µM
COc1cc2c(cc1C)NC(=O)/C2=C\c1cc(OC)c(OC)c(OC)c1 | > 100 µM | > 100 µM | > 100 µM | > 100 µM | > 100 µM | > 100 µM | 31.4 µM | > 100 µM | > 100 µM | 30.6 µM | > 100 µM | 22.9 µM | > 100 µM | > 100 µM | > 100 µM | 32.4 µM | 12.9 µM | 91.2 µM | 37.3 µM | 10.4 µM
CN1CCN(CCSC2Cc3cc(Cl)ccc3Sc3ccccc32)CC1 (stereo not given) | 13.2 µM | 19.1 µM | 20.1 µM | 29.2 µM | 7.88 µM | 9.11 µM | 15.7 µM | 4.38 µM | 3.63 µM | 12.4 µM | – | – | – | – | – | – | – | – | – | –
NC(=O)c1c[se]c(C2OC(CO)C(O)C2O)n1 (stereo not given) | > 100 µM | > 100 µM | > 45 µM | > 100 µM | > 100 µM | > 100 µM | > 100 µM | > 100 µM | > 100 µM | > 100 µM | – | – | – | – | – | – | – | – | – | –
c1ccc2c(c1)[I+]c1ccccc1-2 | > 50 µM | > 50 µM | > 50 µM | > 50 µM | > 50 µM | > 50 µM | > 50 µM | > 50 µM | > 50 µM | > 50 µM | > 50 µM | 25.5 µM | > 50 µM | 19.4 µM | 24.3 µM | > 50 µM | 8.95 µM | > 50 µM | > 50 µM | 18.9 µM
